One test deals with MIA-MSLN cells. The test can be described thus: NF-κB inhibitor assay, expression by real-time RT-PCR and western blot. It is filed as cell-based, human. Here is the method:
Western blots were performed as previously described (Li et al., 2008). Membranes were probed with: anti-MSLN monoclonal antibody (1:1000) (Abcam); PBX-1 polyclonal antibody (1:1000) and Caspase 3 antibody (1:1000) (Cell Signaling); OCT-2 polyclonal antibody (1:400), and VCP polyclonal antibody (1:200) (Santa Cruz Biotechnology); or anti-β-actin, Tubulin, LaminA or GAPDH antibodies (1:10,000) (Sigma Aldrich). Secondary incubation was performed with horseradish peroxidase-linked secondary antibody (1:2,000) (anti-mouse, anti-goat or anti-rabbit) (Cell Signaling).
Differential expression of 95 miRNAs chosen for their potential roles in cancer, cell development, and apoptosis was analyzed by RT-PCR using the QuantiMir System from SBI System Biosciences in both MIA-V and MIA-MSLN cells. The array plate also included the U6 transcript as a normalization signal. cDNAs from different cell lines and tissue samples were mixed with SYBR® Green Mastermix (Bio-Rad Laboratories) plus the universal reverse primer. Specific primers (1 μl) were added to each well of the qPCR plate. Expression levels of each mature miRNA were evaluated using comparative threshold cycle (Ct) method as normalized to that of U6 (2—ΔCt). The expression level of miR-198 was measured in all subsequent experiments using the same method. Real-time RT PCR was performed as previously described for MSLN, ZEB1, PBX-1, and VCP (Li et al., 2008). The primer sequences used are as follows:
MIA-MSLN and MIA-V control cells were treated with 0, 12.5 or 25 μM of the IKK inhibitor Wedelolactone (Calbiochem). The cells were collected after 72 h and protein, RNA, and miRNA extracts were prepared and assayed accordingly.

Another test has as its system AsPC1 cells. As to the kind of experiment: NF-κB inhibitor assay, OCT-2 expression. It is filed as cell-based, human. As to conditions: FIG. 11B.

The results in this text go back to patent US12134769B2, “MicroRNA-198 as a tumor suppressor in ovarian cancer” (Baylor College of Medicine, priority 2011, dated 2024).

Structures are written as SMILES.

`COc1cc(O)c2c(c1)oc(=O)c1c3cc(O)c(O)cc3oc21` [Wedelolactone]: the ZEB1 expression result in the test with MIA-MSLN cells (MIA-MSLN cells) is listed as “completely blocked ZEB1 expression”. The “increase in miR-198 expression” value in the test with MIA-MSLN cells (MIA-MSLN cells, compared to untreated controls, 72 h) is on record as around 17 fold. Moreover, the OCT-2 expression result with MIA-MSLN cells (MIA-MSLN cells, mRNA and protein levels) is “almost complete block in OCT-2 expression”; in the test with AsPC1 cells it was “OCT-2 expression is blocked”. Further, the PBX-1 expression result with MIA-MSLN cells (Wedelolactone inhibition of NF-κB, FIG. 3F) was “downregulation of PBX-1 expression”.
